# Laboratory results from patent publication US12195427B2, “MASP-2 inhibitors and methods of use” (priority 2018, dated 2025).
# Molecular target: MASP-2 CCP2-SP (Homo sapiens (Human), UniProt O00187)
# Experiment: MASP-2 co-crystallization, X-ray crystallography and structure analysis (H-bonds, van der Waals contacts);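 for Ligand-pharmacophore element distance, pharmacophore element C2: distance from averaged pharmacophore element to bound ligand; missing value means element absent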;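 for Ligand-pharmacophore element distance, pharmacophore element C3: distance from averaged pharmacophore element to bound ligand; missing value means element absent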;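 for Ligand-pharmacophore element distance, pharmacophore element C4: distance from averaged pharmacophore element to bound ligand; missing value means element absent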;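 for Ligand-pharmacophore element distance, pharmacophore element C5: distance from averaged pharmacophore element to bound ligand; missing value means element absent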
# Design: van der Waals contact distance, MASP-2 HIS 483 atom CD2 / van der Waals contact distance, MASP-2 HIS 483 atom NE2 / van der Waals contact distance, SER 654 C to compound atom / van der Waals contact distance, SER 654 O to compound atom / van der Waals contact distance, TRP 655 C to compound atom / van der Waals contact distance, MASP-2 GLY 528 atom CA / van der Waals contact distance TRP 655 atom CZ3 / van der Waals contact distance TRP 655 atom N / van der Waals contact distance TRP 655 atom CE3 / van der Waals contact distance GLY 656 atom C / van der Waals contact distance GLY 656 atom CA / van der Waals contact distance GLY 656 atom O / van der Waals contact distance, MASP-2 TYR 607 atom CD1 / van der Waals contact distance, MASP-2 PRO 606 atom O / d(C3,CA1) / d(CA1,N1)2 / d(H4,O1) / d(H4,O2) / d(O1,O2) / d(CA1,O2) / d(CA6,O1) / d(CA6,O2) / d(CA1,C5) / d(O2,H3) / d(N2,C2) / d(CA5,N2) / d(N2,C4) / d(N2,C6) / d(N2,CA3) / d(N2,O3) / d(O4,H2): unit not given beside the values
# Conditions: for H-bond distance to MASP-2 GLY 656 atom N: GLY 656 N; for H-bond distance to MASP-2 SER 654 atom O: SER 654 O; for van der Waals contact distance, MASP-2 HIS 483 atom CD2 / van der Waals contact distance, MASP-2 HIS 483 atom NE2: Table A2-1; for Ligand-pharmacophore element distance, pharmacophore element C2 / Ligand-pharmacophore element distance, pharmacophore element C3 / Ligand-pharmacophore element distance, pharmacophore element C4 / Ligand-pharmacophore element distance, pharmacophore element C5 / Ligand-pharmacophore element distance, pharmacophore element C6 / Ligand-pharmacophore element distance, pharmacophore element C7 / Ligand-pharmacophore element distance, pharmacophore element CA1 / Ligand-pharmacophore element distance, pharmacophore element CA2 / Ligand-pharmacophore element distance, pharmacophore element CA3 / Ligand-pharmacophore element distance, pharmacophore element CA4 / Ligand-pharmacophore element distance, pharmacophore element CA5 / Ligand-pharmacophore element distance, pharmacophore element CA6: Table A4-1; for d(CA1,C5) / d(CA1,O1) / d(CA1,O2) / d(CA1,O4) / d(H4,O1) / d(H4,O2) / d(O1,O2) / d(O4,H2): Table A5-1 pharmacophore: distance between elements, S2/S1 region; for d(N2,C2) / d(N2,CA2) / d(O2,H3) / d(O2,N2): Table A5-2 pharmacophore distance, S3/S4 region; for a(C5, CA1, O1) / a(CA1, O1, O2) / a(CA1, O4, H2) / a(O1, CA1, O4) / a(O1, O2, H4): Table A6-1 pharmacophore angle; for a(O1, O2, H3) / a(O1, O2, N2) / a(O2, N2, C2) / a(O2, N2, CA2): Table A6-2 pharmacophore angle; for Pharmacophore torsion angle a(C5, CA1, O1, H4) / Pharmacophore torsion angle a(H4, O1, O2, H3) / Pharmacophore torsion angle a(H4, O1, O2, N2) / Pharmacophore torsion angle a(O1, H4, O2, CA1) / Pharmacophore torsion angle a(O1, O2, N2, C2): Table A7-1; for Pharmacophore torsion angle a(C5, CA1, O1, H4) / Pharmacophore torsion angle a(H4, O1, O2, H3) / Pharmacophore torsion angle a(H4, O1, O2, N2) / Pharmacophore torsion angle a(O1, H4, O2, CA1) / Pharmacophore torsion angle a(O1, O2, N2, C2) / Pharmacophore torsion angle a(O1, O2, N2, CA2): between pharmacophore elements of the bound compound; for Pharmacophore torsion angle a(O1, O2, N2, CA2): Table A7-2
# Method in brief: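 E. coli-expressed CCP2-SP (±6His); apo crystals soaked 1–2× in inhibitor-containing crystallization solution; optional 20% glycerol cryoprotection, LN2 flash-cool; synchrotron data at 1.0 wavelength; MR using 1Q3X portions, partial refinement; single pose analysed when several seen.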
# [1] = Table A8-6, nearest protein atom in cell to the left
# Sequence of MASP-2 CCP2-SP (O00187 445-686): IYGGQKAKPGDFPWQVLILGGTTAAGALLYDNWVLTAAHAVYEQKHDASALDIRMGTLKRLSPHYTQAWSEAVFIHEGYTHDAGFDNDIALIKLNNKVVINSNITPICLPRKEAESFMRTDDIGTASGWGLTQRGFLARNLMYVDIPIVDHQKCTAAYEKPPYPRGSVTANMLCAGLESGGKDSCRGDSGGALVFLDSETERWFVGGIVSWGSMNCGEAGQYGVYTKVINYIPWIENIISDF
# Sequence of MASP-2 CCP2-SP (O00187 364-432 partner): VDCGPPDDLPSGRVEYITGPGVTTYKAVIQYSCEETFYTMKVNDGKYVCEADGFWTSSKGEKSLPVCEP
compound,measurement,setting,value
"Cc1nc(N)ccc1CNC(=O)[C@H](C)NC(=O)[C@H]1C[C@H](Cc2cccc(Cl)c2)CN1 [compound 1328, (2R,4S)—N—((S)-1-(((6-amino-2-methylpyridin-3-yl)methyl)amino)-1-oxopropan-2-yl)-4-(3-chlorobenzyl)pyrrolidine-2-carboxamide]",H-bond distance to MASP-2 GLY 656 atom N,Table A1 (H-Bonds),3.33
same,H-bond distance to MASP-2 GLY 656 atom O,"Table A1 (H-Bonds), GLY 656 O",2.82
same,H-bond distance to MASP-2 SER 628 atom O,"Table A1 (H-Bonds), SER 628 O",3.06
same,H-bond distance to MASP-2 SER 654 atom O,Table A1 (H-Bonds),2.67
same,H-bond distance to MASP-2 SER 657 atom O,"Table A1 (H-Bonds), SER 657 O",2.44
same,"van der Waals contact distance, MASP-2 HIS 483 atom CD2",,3.79
same,"van der Waals contact distance, MASP-2 HIS 483 atom NE2",,3.73
same,"van der Waals contact distance, MASP-2 PHE 529 atom CD1",Table A2-3,3.78
same,"van der Waals contact distance, SER 654 C to compound atom",Table A2-11,3.62
same,"van der Waals contact distance, VAL 653 CG1 to compound atom",Table A2-11,3.23
same,van der Waals contact distance TRP 655 atom CE3,"Table A2-13, MASP-2 TRP 655 CE3, compound atom in line below",3.49
same,van der Waals contact distance TRP 655 atom CZ3,"Table A2-13, MASP-2 TRP 655 CZ3",3.53
C[C@H](NC(=O)[C@H]1C[C@@H](c2ccccc2)CCN1)C(=O)NCc1cc(Cl)ccc1O.Cl [1078_10],"Ligand-pharmacophore element distance, pharmacophore element C2",,0.49
same,"Ligand-pharmacophore element distance, pharmacophore element C3",,0
same,"Ligand-pharmacophore element distance, pharmacophore element C4",,0
same,"Ligand-pharmacophore element distance, pharmacophore element C5",,0.3
same,"Ligand-pharmacophore element distance, pharmacophore element C6",,0
same,"Ligand-pharmacophore element distance, pharmacophore element C7",,0
same,"Ligand-pharmacophore element distance, pharmacophore element CA1",,1.34
same,"Ligand-pharmacophore element distance, pharmacophore element CA2",,0.49
same,"Ligand-pharmacophore element distance, pharmacophore element CA3",,0
same,"Ligand-pharmacophore element distance, pharmacophore element CA4",,0
same,"Ligand-pharmacophore element distance, pharmacophore element CA5",,0
same,"Ligand-pharmacophore element distance, pharmacophore element CA6",,0
same,"d(CA1,C5)",,3.12
same,"d(CA1,O1)",,4.35
same,"d(CA1,O2)",,4.37
same,"d(CA1,O4)",,2.76
same,"d(H4,O1)",,3.11
same,"d(H4,O2)",,3.46
same,"d(O1,O2)",,2.72
same,"d(O4,H2)",,0.97
same,"d(N2,C2)",,1.48
same,"d(N2,CA2)",,5.72
same,"d(O2,H3)",,1.97
same,"d(O2,N2)",,2.74
same,"a(C5, CA1, O1)",,160.63
same,"a(CA1, O1, O2)",,108.49
same,"a(CA1, O4, H2)",,127.01
same,"a(O1, CA1, O4)",,71.55
same,"a(O1, O2, H4)",,131.53
same,"a(O1, O2, H3)",,146.00
same,"a(O1, O2, N2)",,152.80
same,"a(O2, N2, C2)",,131.78
same,"a(O2, N2, CA2)",,156.19
same,"Pharmacophore torsion angle a(C5, CA1, O1, H4)",,−9.97
same,"Pharmacophore torsion angle a(H4, O1, O2, H3)",,−152.67
same,"Pharmacophore torsion angle a(H4, O1, O2, N2)",,−164.78
same,"Pharmacophore torsion angle a(O1, H4, O2, CA1)",,−84.11
same,"Pharmacophore torsion angle a(O1, O2, N2, C2)",,123.40
same,"Pharmacophore torsion angle a(O1, O2, N2, CA2)",,136.18
same,Pharmacophore protein distance to MET_658 (first MET_658 column),"Table A8-6, 6th residue column, nearest protein atom in cell to the left",3.04
same,Pharmacophore protein distance to MET_658 (second MET_658 column),"Table A8-6, 9th residue column, nearest protein atom in cell to the left",3.81
same,Pharmacophore protein distance to GLY_528,[1],3.40
same,Pharmacophore protein distance to PHE_529,[1],3.08
same,Pharmacophore protein distance to PRO_608,[1],3.66
same,Pharmacophore protein distance to SER_611,[1],2.78
same,Pharmacophore protein distance to TRP_655,"Table A8-6, pharmacophore elements C6, CA3, O3, H1, nearest protein atom in cell to the left",3.89
C[C@H](NC(=O)[C@H]1C[C@@H](c2ccccc2)CCN1)C(=O)NCc1cc(Cl)ccc1O [compound 1078],H-bond distance to MASP-2 ARG 630 atom NH1 (second bond),"Table A1 (H-Bonds), ARG 630 NH1",3.25
same,H-bond distance to MASP-2 ARG 630 atom NH1,"Table A1 (H-Bonds), ARG 630 NH1, first column",2.92
same,H-bond distance to MASP-2 GLY 656 atom N,Table A1 (H-Bonds),3.14
same,H-bond distance to MASP-2 SER 654 atom O,Table A1 (H-Bonds),2.66
same,"van der Waals contact distance, MASP-2 HIS 483 atom CD2",,3.35
same,"van der Waals contact distance, MASP-2 HIS 483 atom NE2",,3.28
same,"van der Waals contact distance, MASP-2 amino acid atom to compound atom","Table A2-9, ARG 630, AA atoms CG, CZ",3.78
same,"van der Waals contact distance, VAL 653 CG1 to compound atom",Table A2-11,3.49
C[C@H](NC(=O)[C@H]1C[C@@H](c2ccccc2)CCN1)C(=O)NCc1cc(Cl)ccc1O.Cl [1078_3],"Ligand-pharmacophore element distance, pharmacophore element C2",,0.43
same,"Ligand-pharmacophore element distance, pharmacophore element C3",,0
same,"Ligand-pharmacophore element distance, pharmacophore element C4",,0
same,"Ligand-pharmacophore element distance, pharmacophore element C5",,0.45
same,"Ligand-pharmacophore element distance, pharmacophore element C6",,0
same,"Ligand-pharmacophore element distance, pharmacophore element C7",,0
same,"Ligand-pharmacophore element distance, pharmacophore element CA1",,1.53
same,"Ligand-pharmacophore element distance, pharmacophore element CA2",,0.27
same,"Ligand-pharmacophore element distance, pharmacophore element CA3",,0
same,"Ligand-pharmacophore element distance, pharmacophore element CA4",,0
same,"Ligand-pharmacophore element distance, pharmacophore element CA5",,0
same,"Ligand-pharmacophore element distance, pharmacophore element CA6",,0
same,"d(CA1,C5)",,3.13
same,"d(CA1,O1)",,4.44
same,"d(CA1,O2)",,4.54
same,"d(CA1,O4)",,2.75
same,"d(H4,O1)",,3.13
same,"d(H4,O2)",,3.61
same,"d(O1,O2)",,3.17
same,"d(O4,H2)",,0.98
same,"d(N2,C2)",,1.45
same,"d(N2,CA2)",,5.70
same,"d(O2,H3)",,2.05
same,"d(O2,N2)",,2.79
same,"a(C5, CA1, O1)",,162.08
same,"a(CA1, O1, O2)",,112.44
same,"a(CA1, O4, H2)",,128.44
same,"a(O1, CA1, O4)",,67.41
same,"a(O1, O2, H4)",,124.44
same,"a(O1, O2, H3)",,132.07
same,"a(O1, O2, N2)",,145.54
same,"a(O2, N2, C2)",,126.01
same,"a(O2, N2, CA2)",,154.83
same,"Pharmacophore torsion angle a(C5, CA1, O1, H4)",,−5.62
same,"Pharmacophore torsion angle a(H4, O1, O2, H3)",,−160.53
same,"Pharmacophore torsion angle a(H4, O1, O2, N2)",,−166.69
same,"Pharmacophore torsion angle a(O1, H4, O2, CA1)",,−82.33
same,"Pharmacophore torsion angle a(O1, O2, N2, C2)",,132.95
same,"Pharmacophore torsion angle a(O1, O2, N2, CA2)",,140.71
